Test results from article PMC8205226, “HIV-1 Integrase Inhibitors with Modifications That Affect Their Potencies against Drug Resistant Integrase Mutants” (ACS Infectious Diseases, 2021).
Like-named read-outs stand apart in the source and are kept apart here.

Key:
HIV-1 IN mutant N155H [1] = conditions: single round infection; previously reported; cited from earlier work
HIV-1 IN mutant S119R = test: single-round infectivity assay, S119R IN mutant; format: cell-based
Method: (§1) The EC50 values were determined using a vector that carries the IN mutant in a single round infection assay. […] Error bars represent the standard deviations of independent experiments, n = 4, performed in triplicate.
(§2) WT and mutant HIV-1 viral vectors were used in single-round infectivity assays to determine the antiviral potencies (EC50 values) of the compounds and the effects of the mutants on the EC50 values as previously described.[30],[54] Single round infectivity measurements were determined as done previously.[38]
(§3) The vector pNLNgoMIVR-ΔENV.LUC has been described previously.[26] To produce the new IN mutants used in this study, the IN open reading frame was removed from pNLNgoMIVR-ΔENV.LUC by digestion with KpnI and SalI, and the resulting fragment was inserted between the KpnI and SalI sites of pBluescript KS+. Using that construct as the wild-type template, we prepared the following HIV-1 IN mutants using the QuikChange II XL site directed mutagenesis kit (Agilent Technologies, Santa Clara, CA) protocol: N117A, N117H, P142A, P142H, P142S, Y143C, Y143H, S230R, R231G, and R231K. The following sense oligonucleotides were used with matching cognate antisense oligonucleotides (not shown) (Integrated DNA Technologies, Coralville, IA) in the mutagenesis: N117A, 5′-[…]-3′; N117H, 5′-[…]-3′; P142A, 5′-[…]-3′; P142H, 5′-[…]-3′; P142S, 5′-[…]-3′; Y143C, 5′- […]-3′; Y143H, 5′-[…]-3′; S230R, 5′- […]-3′; R231G, 5′-[…]-3′; R231K, 5′-[…]-3′.

HIV-1 IN mutant P142H = test: single-round infectivity assay, P142H IN mutant; format: cell-based; conditions: Human immunodeficiency virus 1, read-out: EC50 values P142H
Method: as §1
Single round infectivity measurements were determined as done previously.[38]
as §3

HIV-1 IN mutant Y143H = test: single-round infectivity assay, Y143H IN mutant; format: cell-based
Method: (§4) Figure 4 Mutations in the β5-α3 loop affect the antiviral potencies of the new compounds. The EC50 values were determined using a vector that carries the IN mutant in a single round infection assay. […] Error bars represent the standard deviations of independent experiments, n = 4, performed in triplicate.
as §2, §3

HIV-1 IN mutant Y143C = test: single-round infectivity assay, Y143C IN mutant; format: cell-based; conditions: fold change in EC50, IN mutant versus WT HIV-1
Method: as §4, §2, §3

HIV-1 IN mutant P142A = test: single-round infectivity assay, P142A IN mutant; format: cell-based
Method: as §4, §2, §3

WT HIV-1 = conditions: vector carrying WT HIV-1 IN, single round infection; previously reported; cited from earlier work
HIV-1 IN mutant R231G = test: single-round infectivity assay, R231G IN mutant; format: cell-based
Method: (§5) Figure 5 Antiviral potencies of the new compounds against IN with mutations in the […]. The EC50 values were determined using a vector that carries the IN mutant in a single round infection assay. […] Error bars represent the standard deviations of independent experiments, n = 4, performed in triplicate.
as §2, §3

[2] = system: HIV-1 IN double mutant G140S/Q148H; conditions: single round infection; previously reported; cited from earlier work
HIV-1 IN mutant N117A = test: single-round infectivity assay, N117A IN mutant; format: cell-based
Method: as §1, §2, §3

HIV-1 IN mutant N155H [3] = test: single-round infectivity assay, N155H IN mutant; format: cell-based; conditions: fold change in EC50, IN mutant versus WT HIV-1
Method: (§6) Figure 2 Antiviral activities of the new compounds against RAL-resistant mutants. The EC50 values were determined using a vector that carries WT HIV-1 IN and the RAL-resistant mutants in a single round infection assay. […] Error bars represent the standard deviations of independent experiments, n = 4, performed in triplicate. The graph has a maximum value of 550 nM.
as §2, §3

HIV-1 IN mutant Y143R [4] = test: single-round infectivity assay, Y143R IN mutant; format: cell-based; conditions: fold change in EC50, IN mutant versus WT HIV-1
Method: as §6, §2, §3

HIV-1 IN mutant R231K = test: single-round infectivity assay, R231K IN mutant; format: cell-based
Method: as §5, §2, §3

HIV-1 IN mutant S230R = test: single-round infectivity assay, S230R IN mutant; format: cell-based
Method: as §5, §2, §3

HIV-1 IN mutant N117H = test: single-round infectivity assay, N117H IN mutant; format: cell-based
Method: as §1, §2, §3

HIV-1 IN mutant G118R = conditions: single round infection; previously shown; cited from earlier work
[5] = system: HIV-1 IN double mutant G140S/Q148H; test: single-round infectivity assay, G140S/Q148H IN double mutant; format: cell-based; conditions: fold change in EC50, IN mutant versus WT HIV-1
Method: as §6, §2, §3

HIV-1 IN mutant P142S = test: single-round infectivity assay, P142S IN mutant; format: cell-based
Method: as §4, §2, §3

HIV-1 IN mutant Y143R [6] = conditions: single round infection; previously reported; cited from earlier work
[7] = fold change in EC50, IN mutant versus WT HIV-1

C[C@@H]1CCO[C@H]2Cn3cc(C(=O)NCc4ccc(F)cc4F)c(=O)c(O)c3C(=O)N12 [DTG, dolutegravir, reference compound]
EC50 (HIV-1 IN mutant N155H [1]): 3.6 ± 1.3 nM | EC50 (HIV-1 IN mutant S119R; Human immunodeficiency virus 1, read-out: EC50 values S119R): 2.3 ± 0.6 nM | FC S119R (HIV-1 IN mutant S119R; [7]): 1.4 | EC50 (HIV-1 IN mutant P142H): 2.8 ± 0.7 nM | EC50 (HIV-1 IN mutant Y143H; Human immunodeficiency virus 1, read-out: EC50 values Y143H, single round infection, n = 4): 2.2 ± 0.2 nM | FC Y143H (HIV-1 IN mutant Y143H; [7]): 1.4 | EC50 (HIV-1 IN mutant Y143H; read-out: EC50 values Y143H, single round infection, n = 4): < 3 nM | FC Y143C (HIV-1 IN mutant Y143C): 0.9 | EC50 (HIV-1 IN mutant P142A; Human immunodeficiency virus 1, read-out: EC50 values P142A): 2.5 ± 0.5 nM | FC P142A (HIV-1 IN mutant P142A; [7]): 1.6 | EC50 (WT HIV-1): 1.6 ± 0.9 nM | EC50 (HIV-1 IN mutant R231G; Human immunodeficiency virus 1, read-out: EC50 values R231G): 1.4 ± 0.2 nM | FC R231G (HIV-1 IN mutant R231G; [7]): 0.9 | EC50 [2]: 5.8 ± 0.5 nM | EC50 (HIV-1 IN mutant N117A; Human immunodeficiency virus 1, read-out: EC50 values N117A): 0.5 nM | FC N117A (HIV-1 IN mutant N117A; [7]): 0.3 | FC N155H (HIV-1 IN mutant N155H [3]): 2.3 | FC Y143R (HIV-1 IN mutant Y143R [4]): 2.7 | EC50 (HIV-1 IN mutant R231K; Human immunodeficiency virus 1, read-out: EC50 values R231K, single round infection, n = 4): 4.2 ± 0.2 nM | EC50 (HIV-1 IN mutant R231K; read-out: EC50 values R231K, single round infection, n = 4): < 5 nM | EC50 (HIV-1 IN mutant S230R; Human immunodeficiency virus 1, read-out: EC50 values S230R): 4.6 ± 0.7 nM | FC S230R (HIV-1 IN mutant S230R; [7]): 2.9 | EC50 (HIV-1 IN mutant N117H; Human immunodeficiency virus 1, read-out: EC50 values N117H): 2.4 nM | FC N117H (HIV-1 IN mutant N117H; [7]): 1.5 | EC50 (HIV-1 IN mutant G118R): 13 ± 5 nM | FC G140S/Q148H [5]: 3.6 | EC50 (HIV-1 IN mutant P142S; Human immunodeficiency virus 1, read-out: EC50 values P142S): 2.2 ± 0.1 nM | FC P142S (HIV-1 IN mutant P142S; [7]): 1.4 | EC50 (HIV-1 IN mutant Y143R [6]): 4.3 ± 1.2 nM
